Data taken from patent US12643855B2, “Fluorogenic dimer compound, useful as a probe for detection of endogenous receptors” (UNIVERSITE DE STRASBOURG, priority 2020, dated 2026).

What was measured:
Format in all cases: physicochemical
[1] = Absorption and fluorescence spectroscopy, DY647 dimers (Examples 2 and 3); settings: for λem, position of the emission maximum: excitation 600 nm; for Fluorescence turn-on: ratio of quantum yields in EtOH to that in water (200 nM), DY647 dimers
Protocol: Absorption spectra were recorded on a Shimadzu UV-2700i spectrophotometer and fluorescence spectra on a Horiba Fluoromax 4 spectrofluorometer. Fluorescence emission spectra were systematically recorded at 600 nm excitation wavelength at 20° C. All fluorescence spectra were corrected for instrumental effects. Fluorescence quantum yields (QY) were measured using DID in MeOH as a reference (QY=33%).^[ref] Turn-ON were calculated as a ratio of QY of compounds in EtOH to QY in water. • Ref I. Texier, et al., J. Biomed. Opt. 2009, 14, 054005.

[2] = Absorption and fluorescence spectroscopy, Cy5.5 dimers (Examples 2 and 3); settings: for λem, position of the emission maximum: excitation 630 nm
Protocol: (§1) Absorption spectra were recorded on a Shimadzu UV-2700i spectrophotometer and fluorescence spectra on a Horiba Fluoromax 4 spectrofluorometer. Fluorescence emission spectra were systematically recorded at 630 nm excitation wavelength at 20° C. All fluorescence spectra were corrected for instrumental effects. Fluorescence quantum yields (QY) were measured using Rhodamine 800 in EtOH as a reference (QY=25%).^[ref] Turn-ON were calculated as a ratio of OY of compounds in EtOH to OY in water. • Ref A. Alessi, M. Salvalaggio, G. Ruzzon, J. Lumin. 2013, 134, 385-389. DY647 Dimers
as §1, with “QY” for “OY”

[3] = Absorption and fluorescence spectroscopy of mCy5.5-PEG and dCy5.5-PEG in solvents of different polarities (Example 1); settings: for λem, position of the emission maximum: excitation 630 nm, 20° C.; for Difference in QY between organic solvents and water (turn-on response): QY in organic solvents vs water; for Fluorescence maxima: in organic solvents
From the text: All fluorescence spectra were corrected for instrumental effects. […] To confirm the formation of the intramolecular dimer, the absorption spectra of two dyes were compared. […] This new band can be assigned to the non-fluorescent intramolecular dimer of the H-aggregate type, which is highly favored in aqueous medium. […] As a consequence, dCy5.5-PEG presented excellent fluorogenic properties, with up to 140-fold higher QY in organic solvents than in water. […] As the absorption spectrum of dCy5.5-PEG in the open form (in MeOH) is the same as that of the cyanine 2, the extinction coefficient of the dimer should be ca double of the monomer. The extinction coefficient for the cyanine 2, was measured to be 222 000 M^−1 cm^−1 in MeOH, which allows estimation of the extinction coefficient for the dimer dCy5.5-PEG: 222 000 M^−1 cm^−1×2=444 000 M^−1 cm^−1. Then, given its strong QY (56% in DMF), dCy5.5-PEG appears to be one of the brightest fluorogenic NIR dyes reported to date.

With `COCC[N+]1=C(/C=C/C=C/C=C2/N(CCCCCC(=O)NCCCC[C@H](NC(=O)CCCCCN3/C(=C/C=C/C=C/C4=[N+](CCOC)c5ccc(S(=O)(=O)O)cc5C4(C)C)C(C)(C)c4cc(S(=O)(=O)[O-])ccc43)C(=O)NCCOCCOCCNC(=O)CCC(=O)NCCOCCOCCNC(=O)CCC(=O)OC(C)(C)C)c3ccc(S(=O)(=O)[O-])cc3C2(C)C)C(C)(C)c2cc(S(=O)(=O)O)ccc21` [A] the “QY, fluorescence quantum yield” value ([1]; Acetone) was 3.4%, the “λabs, position of the absorption maximum” value ([1]; Acetone) was 661 nm and the “λem, position of the emission maximum” value ([1]; Acetone) was 684 nm. The “QY, fluorescence quantum yield” value ([1]; Acetonitrile) was 19.8%, the “λabs, position of the absorption maximum” value ([1]; Acetonitrile) was 656 nm and the “λem, position of the emission maximum” value ([1]; Acetonitrile) was 678 nm. For the same molecule, the “QY, fluorescence quantum yield” value ([1]; EtOH) was 31.1%, the “λabs, position of the absorption maximum” value ([1]; EtOH) was 654 nm and the “λem, position of the emission maximum” value ([1]; EtOH) was 676 nm. For the same molecule, the “QY, fluorescence quantum yield” value ([1]; H2O) was 4.1%, the “λabs, position of the absorption maximum” value ([1]; H2O) was 647 nm and the “λem, position of the emission maximum” value ([1]; H2O) was 671 nm. The “QY, fluorescence quantum yield” value ([1]; MeOH) was 28.2%, the “λabs, position of the absorption maximum” value ([1]; MeOH) was 651 nm and the “λem, position of the emission maximum” value ([1]; MeOH) was 673 nm. The Fluorescence turn-on [1] was 7.6.

With `COCC[N+]1=C(/C=C/C=C/C=C2/N(CCCCCC(=O)NCCOCCOCCNC(=O)CCC(=O)NCCCC[C@H](NC(=O)CCC(=O)NCCOCCOCCNC(=O)CCCCCN3/C(=C/C=C/C=C/C4=[N+](CCOC)c5ccc(S(=O)(=O)O)cc5C4(C)C)C(C)(C)c4cc(S(=O)(=O)[O-])ccc43)C(=O)NCCOCCOCCNC(=O)CCC(=O)NCCOCCOCCNC(=O)CCC(=O)OC(C)(C)C)c3ccc(S(=O)(=O)[O-])cc3C2(C)C)C(C)(C)c2cc(S(=O)(=O)O)ccc21` [B] the “QY, fluorescence quantum yield” value ([1]; Acetone) was 0.4%, the “λabs, position of the absorption maximum” value ([1]; Acetone) was 660 nm and the “λem, position of the emission maximum” value ([1]; Acetone) was 683 nm. For the same molecule, the “QY, fluorescence quantum yield” value ([1]; Acetonitrile) was 6.6%, the “λabs, position of the absorption maximum” value ([1]; Acetonitrile) was 658 nm and the “λem, position of the emission maximum” value ([1]; Acetonitrile) was 677 nm. The “QY, fluorescence quantum yield” value ([1]; EtOH) was 35.1%, the “λabs, position of the absorption maximum” value ([1]; EtOH) was 653 nm and the “λem, position of the emission maximum” value ([1]; EtOH) was 673 nm. For the same molecule, the “QY, fluorescence quantum yield” value ([1]; H2O) was 7.6%, the “λabs, position of the absorption maximum” value ([1]; H2O) was 648 nm and the “λem, position of the emission maximum” value ([1]; H2O) was 666 nm. The “QY, fluorescence quantum yield” value ([1]; MeOH) was 33.0%, the “λabs, position of the absorption maximum” value ([1]; MeOH) was 650 nm and the “λem, position of the emission maximum” value ([1]; MeOH) was 673 nm. It also gave a Fluorescence turn-on [1] of 4.6.

With `COCCOCCOCCOCCOCCOCCOCCOCC[N+]1=C(/C=C/C=C/C=C2/N(CCCCCC(=O)NCCOCCOCCNC(=O)CCC(=O)NCCCC[C@H](NC(=O)CCC(=O)NCCOCCOCCNC(=O)CCCCCN3/C(=C/C=C/C=C/C4=[N+](CCOCCOCCOCCOCCOCCOCCOCCOC)c5ccc6ccccc6c5C4(C)C)C(C)(C)c4c3ccc3ccccc43)C(=O)NCCOCCOCCNC(=O)CCC(=O)NCCOCCOCCNC(=O)CCC(=O)OC(C)(C)C)c3ccc4ccccc4c3C2(C)C)C(C)(C)c2c1ccc1ccccc21` [Compound 5] the “QY, fluorescence quantum yield” value ([2]; Acetone) was 25.0%, the “λabs, position of the absorption maximum” value ([2]; Acetone) was 683 nm and the “λem, position of the emission maximum” value ([2]; Acetone) was 708 nm. The “QY, fluorescence quantum yield” value ([2]; Acetonitrile) was 22.7%, the “λabs, position of the absorption maximum” value ([2]; Acetonitrile) was 681 nm and the “λem, position of the emission maximum” value ([2]; Acetonitrile) was 703 nm. The “QY, fluorescence quantum yield” value ([2]; EtOH) was 26.5%, the “λabs, position of the absorption maximum” value ([2]; EtOH) was 685 nm and the “λem, position of the emission maximum” value ([2]; EtOH) was 708 nm. For the same molecule, the “QY, fluorescence quantum yield” value ([2]; H2O) was 0.4%, the “λabs, position of the absorption maximum” value ([2]; H2O) was 630 nm and the “λem, position of the emission maximum” value ([2]; H2O) was 708 nm. For the same molecule, the “QY, fluorescence quantum yield” value ([2]; MeOH) was 21.1%, the “λabs, position of the absorption maximum” value ([2]; MeOH) was 682 nm and the “λem, position of the emission maximum” value ([2]; MeOH) was 708 nm. It also gave a Fluorescence turn-on ([2]; ratio of quantum yields in EtOH to that in water (200 nM), Cy5.5 dimers) of 66.

In the case of `COCCOCCOCCOCCOCCOCCOCCOCC[N+]1=C(/C=C/C=C/C=C2/N(CCCCCC(=O)O)c3ccc4ccccc4c3C2(C)C)C(C)(C)c2c1ccc1ccccc21.[I-]` [cyanine 2, 2-((1E,3E,5E)-5-(3-(5-carboxypentyl)-1,1-dimethyl-1,3-dihydro-2H-benzo[e]indol-2-ylidene)penta-1,3-dien-1-yl)-1,1-dimethyl-3-(2,5,8,11,14,17,20,23-octaoxapentacosan-25-yl)-1H-benzo[e]indol-3-ium iodide], the Extinction coefficient ([3]; in MeOH) is reported as 222 000 M^−1 cm^−1.

With `C#CCNC(=O)CCNC(=O)CCC(=O)NCCOCCOCCNC(=O)CCC(=O)NCCOCCOCCNC(=O)[C@H](CCCCNC(=O)CCC(=O)NCCOCCOCCNC(=O)CCCCCN1/C(=C/C=C/C=C/C2=[N+](CCOCCOCCOCCOCCOCCOCCOCCOC)c3ccc4ccccc4c3C2(C)C)C(C)(C)c2c1ccc1ccccc21)NC(=O)CCC(=O)NCCOCCOCCNC(=O)CCCCCN1/C(=C/C=C/C=C/C2=[N+](CCOCCOCCOCCOCCOCCOCCOCCOC)c3ccc4ccccc4c3C2(C)C)C(C)(C)c2c1ccc1ccccc21.O=C([O-])C(F)(F)F.O=C([O-])C(F)(F)F` [dCy5.5-PEG] the “QY, fluorescence quantum yield” value ([3]; 1,4-Dioxane) was 28%, the “λabs, position of the absorption maximum” value ([3]; 1,4-Dioxane) was 689 nm and the “λem, position of the emission maximum” value ([3]; 1,4-Dioxane) was 718 nm. For the same molecule, the “QY, fluorescence quantum yield” value ([3]; DMF) was 56%, the “λabs, position of the absorption maximum” value ([3]; DMF) was 685 nm and the “λem, position of the emission maximum” value ([3]; DMF) was 709 nm. The “QY, fluorescence quantum yield” value ([3]; EtOH) was 26%, the “λabs, position of the absorption maximum” value ([3]; EtOH) was 686 nm and the “λem, position of the emission maximum” value ([3]; EtOH) was 710 nm. For the same molecule, the “QY, fluorescence quantum yield” value ([3]; MeOH) was 26%, the “λabs, position of the absorption maximum” value ([3]; MeOH) was 682 nm and the “λem, position of the emission maximum” value ([3]; MeOH) was 705 nm. The “Difference in QY between organic solvents and water (turn-on response)” value [3] was “up to 140 fold”, the “QY, fluorescence quantum yield” value ([3]; Water) was 0.4% and the “λabs, position of the absorption maximum” value ([3]; Water) was 629 nm. The “λem, position of the emission maximum” value ([3]; Water) was 700 nm, the Fluorescence maxima [3] was “around 710 nm” and the “Extinction coefficient, estimation for the dimer” value ([3]; open form (in MeOH), double of cyanine 2) was 444 000 M^−1 cm^−1.

In the case of `C#CCNC(=O)CCNC(=O)CCC(=O)NCCOCCOCCNC(=O)CCC(=O)NCCOCCOCCNC(=O)CCC(=O)NCCOCCOCCNC(=O)CCCCCN1/C(=C/C=C/C=C/C2=[N+](CCOCCOCCOCCOCCOCCOCCOCCOC)c3ccc4ccccc4c3C2(C)C)C(C)(C)c2c1ccc1ccccc21.O=C([O-])C(F)(F)F` [mCy5.5-PEG], the “QY, fluorescence quantum yield” value ([3]; 1,4-Dioxane) is reported as 59%, the “λabs, position of the absorption maximum” value ([3]; 1,4-Dioxane) is reported as 689 nm and the “λem, position of the emission maximum” value ([3]; 1,4-Dioxane) is reported as 712 nm. The “QY, fluorescence quantum yield” value ([3]; DMF) was 50%, the “λabs, position of the absorption maximum” value ([3]; DMF) was 686 nm and the “λem, position of the emission maximum” value ([3]; DMF) was 709 nm. For the same molecule, the “QY, fluorescence quantum yield” value ([3]; EtOH) was 34%, the “λabs, position of the absorption maximum” value ([3]; EtOH) was 686 nm and the “λem, position of the emission maximum” value ([3]; EtOH) was 709 nm. For the same molecule, the “QY, fluorescence quantum yield” value ([3]; MeOH) was 32%, the “λabs, position of the absorption maximum” value ([3]; MeOH) was 681 nm and the “λem, position of the emission maximum” value ([3]; MeOH) was 705 nm. For the same molecule, the “Difference in QY between organic solvents and water (turn-on response)” value [3] was under 2.7 fold, the “QY, fluorescence quantum yield” value ([3]; Water) was 22% and the “λabs, position of the absorption maximum” value ([3]; Water) was 679 nm. For the same molecule, the “λem, position of the emission maximum” value ([3]; Water) was 700 nm, the Fluorescence maxima [3] was “around 710 nm” and the Absorption maxima ([3]; in water and in MeOH) was “around 680 nm”.
